In patent US20190142810A1, “MITOCHONDRIAL INHIBITORS FOR THE TREATMENT OF PROLIFERATION DISORDERS” (Basilea Pharmaceutica International AG, priority 2016, published 2019):
pIC50: −log10 of the molar value.

How the values were obtained:
[1] = tested on: Oxygen consumption (mitochondrial function); experiment: Oxygen consumption assay (MitoXpress probe); format: cell-based; settings: MitoXpress probe signal, kinetic analysis at 37° C. for 5 hours, compared to untreated cells
Source text: Oxygen consumption is one of the most informative and direct measures of mitochondrial function and can be measured, for example, by using the MitoXpress® assay (Luxcel MX-2001, Luxcel Biosciences). The MitoXpress® probe is one of a family of phosphorescent oxygen sensitive probes. The assay exploits the ability of oxygen to quench the excited state of the MitoXpress® probe. As the test material respires (i.e. the cells), oxygen is depleted in the surrounding solution/environment, which increases the probe phosphorescence signal. Changes in oxygen consumption reflecting changes in mitochondrial activity are seen as changes in the MitoXpress® probe signal over time.
Cells were seeded in 96 well black plates with transparent bottoms (Greiner Bio-One cat. no. 655090) at a density of 50′000 cells/well in a final volume of 100 μL. After 24 hours the incubation media was removed and 150 μL of fresh media containing inhibitors at different concentrations was added to each well. Then, 10 μL of MitoXpress® and 150 μL mineral oil were added per well. Reading from the top of the plate, kinetic analysis was performed at 37° C. for 5 hours using a Synergy 4 plate reader (BioTek) and Time-resolved Fluoresence (TRF) wavelengths of 380/11 nm excitation and 650/20 nm emission or 665/40 emission (30 microsecond delay time, 100 microsecond integration time, gain or sensitivity settings set at either medium or high). IC50s were calculated as the concentration that inhibits 50% of the phosphorescent oxygen sensitive probe signal (MitoXpress®) as compared to untreated cells.

HeLa galactose cells = experiment: Cell growth and proliferation assay of HeLa galactose cells (crystal violet); format: cell-based; settings: 72 hours incubation, crystal violet staining, absorbance at 590 nm
Protocol: The cervical tumor cell line HeLa (ATCC, CCL-2) was cultivated in DMEM medium (Invitrogen cat. no. 11971, 4.5 g/L high glucose) containing 10% fetal calf serum (Sigma cat. no. F9665) and 1% Penicillin/Streptomycin (Sigma cat. no. P0781) at 37° C. in 5% CO2. HeLa galactose cells (i.e. HeLa cells that grow in high concentrations of galactose) were generated from HeLa glucose cells (i.e. HeLa cells that grow in high concentrations of glucose) by gradually changing the amount of glucose in the media to zero glucose in the presence of galactose as a sugar source (50% galactose/50% glucose media for one week, then 75% galactose/25% glucose media for one week, to 100% galactose media in the third week). Galactose media (Invitrogen cat. no. 11966) was supplemented with 10 mM galactose (Sigma cat. no. G5388).
Cell Growth and Proliferation Assay of HeLa Galactose and Glucose Cells
HeLa galactose cells and HeLa glucose cells were seeded in 96 well plates (TPP, cat. no 92696) at 2000 and 1500 cells/well, respectively, in 100 μL of complete medium. After overnight incubation the cells were incubated for 72 hours in complete medium containing 0.001% DMSO or compounds (final concentration of DMSO 0.001%). After the medium was removed, cells were fixed and stained by adding 50 μL crystal violet staining (0.2% crystal violet (Sigma-Aldrich cat. no. C0775) in 50% methanol) per well. The plates were incubated for 1 hour at room temperature. Subsequently the stain was decanted and plates were washed 4 times with de-mineralized water. Plates were air-dried for 2 hours. The stain was dissolved by adding 100 μL buffer (0.1 M Tris pH 7.5, 0.2% SDS, 20% ethanol) per well and shaking the plates. Absorbance at 590 nm was measured using a SpectraMax® 250 plate reader (Molecular Devices). Antiproliferative/growth inhibition IC50s were calculated from concentration-response curves using GraphPad Prism software.

Structure (SMILES) | pIC50 (HeLa galactose cells; Homo sapiens, HeLa, 72 h) | pIC50 (HeLa galactose cells) | pIC50 ([1]; 5 h) | pIC50 [1]
Cc1nsc(NC(=O)N2CCC(Cc3c(F)cc(Cl)cc3Cl)CC2)n1 [Example 66] | 7.17 |  | 6.92 | 
Cc1ccc(CC2CCN(C(=O)Nc3nc(C)ns3)CC2)c(F)c1 [Example 27, 4-[(2-fluoro-4-methyl-phenyl)methyl]-N-(3-methyl-1,2,4-thiadiazol-5-yl)piperidine-1-carboxamide] | 7.23 |  | 7.08 | 
Cc1nsc(NC(=O)N2CCC(Cc3ccc(-c4noc(C)n4)cc3F)CC2)n1 [Example 35, 4-[[2-fluoro-4-(5-methyl-1,2,4-oxadiazol-3-yl)phenyl]methyl]-N-(3-methyl-1,2,4-thiadiazol-5-yl)piperidine-1-carboxamide] | 6.62 |  | 6.33 | 
Cc1nsc(NC(=O)N2CCC(Cc3ccc(C)c(F)c3)CC2)n1 [Example 29] | 6.59 |  | 6.69 | 
CCc1nsc(NC(=O)N2CCC(Cc3ccc(Cl)cc3F)CC2)n1 [Example 70, 4-[(4-chloro-2-fluoro-phenyl)methyl]-N-(3-ethyl-1,2,4-thiadiazol-5-yl)piperidine-1-carboxamide] | 7.52 |  | 7.19 | 
COCc1ccc(C=C2CCN(C(=O)Nc3nc(C)ns3)CC2)c(F)c1 [Example 93, 4-[[2-fluoro-4-(methoxymethyl)phenyl]methylene]-N-(3-methyl-1,2,4-thiadiazol-5-yl)piperidine-1-carboxamide] | 7.25 |  | 7.20 | 
Cc1nsc(NC(=O)N2CCC(=Cc3ccc(C(F)(F)F)cc3F)CC2)n1 [Example 38] | 7.21 |  | 6.88 | 
Cc1ccc(CC2CCN(C(=O)Nc3nc(C)ns3)CC2)c(C)c1 [Example 12] | 7.72 |  | 6.30 | 
Cc1nsc(NC(=O)N2CCCN(Cc3ccc(Cl)cc3F)CC2)n1 [Example 51] | 7.17 |  | 6.74 | 
Cc1nsc(NC(=O)N2CC/C(=C\c3ccc(Cl)cc3F)C(C)(C)C2)n1 [Example 85, (4E)-4-[(4-chloro-2-fluoro-phenyl)methylene]-3,3-dimethyl-N-(3-methyl-1,2,4-thiadiazol-5-yl)piperidine-1-carboxamide] | 7.42 |  | 7.08 | 
COc1ccc(CC2CCN(C(=O)Nc3nc(C)ns3)CC2)c(F)c1 [Example 30] | 7.23 |  | 6.75 | 
Cc1nsc(NC(=O)N2CCC(=Cc3ccc(N4CCCC4)cc3F)CC2)n1 [Example 45, 4-[(2-fluoro-4-pyrrolidin-1-yl-phenyl)methylene]-N-(3-methyl-1,2,4-thiadiazol-5-yl)piperidine-1-carboxamide] | 6.55 |  | 6.36 | 
COc1ccc(CC2CCN(C(=O)Nc3nc(C)ns3)CC2)c(C)c1 [Example 13, 4-[(4-methoxy-2-methyl-phenyl)methyl]-N-(3-methyl-1,2,4-thiadiazol-5-yl)piperidine-1-carboxamide] | 6.51 |  | 6.46 | 
Cc1nsc(NC(=O)N2CCC(C(=O)c3ccc(Br)cc3)CC2)n1 [Example 77, 4-(4-bromobenzoyl)-N-(3-methyl-1,2,4-thiadiazol-5-yl)piperidine-1-carboxamide] | 7.32 |  | 7.27 | 
Cc1nsc(NC(=O)N2CCC(Cc3ccc(C(C)C)cc3)CC2)n1 [Example 16] | 6.59 |  | 6.49 | 
Cc1nsc(NC(=O)N2CCC(Cc3ccc(C)c(C)c3)CC2)n1 [Example 28, 4-[(3,4-dimethylphenyl)methyl]-N-(3-methyl-1,2,4-thiadiazol-5-yl)piperidine-1-carboxamide] | 6.60 |  | 6.48 | 
Cc1nsc(NC(=O)N2CC/C(=C\c3ccc(Cl)cc3F)C(C)C2)n1 (stereo not shown) [Example 82, (4E)-4-[(4-chloro-2-fluoro-phenyl)methylene]-3-methyl-N-(3-methyl-1,2,4-thiadiazol-5-yl)piperidine-1-carboxamide] | 7.51 |  | 7.11 | 
Cc1nsc(NC(=O)N2CCC(Cc3ccc(C(F)(F)F)cc3F)CC2)n1 [Example 33] | 7.15 |  | 6.99 | 
Cc1nsc(NC(=O)N2CCC(Oc3ccc(OC(F)(F)F)cc3)CC2)n1 [Example 56] | 6.13 |  | 5.90 | 
Cc1nsc(NC(=O)N2CCC(Cc3ccc(Cl)cc3F)C(C)C2)n1 (single isomer, unassigned) [Example 84b, 4-[(4-chloro-2-fluoro-phenyl)methyl]-3-methyl-N-(3-methyl-1,2,4-thiadiazol-5-yl)piperidine-1-carboxamide] |  | 7.12 |  | 6.92
Cc1nsc(NC(=O)N2CCC(Cc3ccc(F)cc3)CC2)n1 [Example 1, 1-Piperidinecarboxamide, 4-[(4-fluorophenyl)methyl]-N-(3-methyl-1,2,4-thiadiazol-5-yl)-] | 6.79 |  | 6.71 | 
Cc1ccc(CC2CCN(C(=O)Nc3nc(C)ns3)CC2)nc1 [Example 15] | 6.57 |  | 6.39 | 

More lines, main results first:

pIC50 (HeLa galactose cells; Homo sapiens, HeLa, 72 h) | pIC50 (HeLa galactose cells) | Structure (SMILES) | pIC50 ([1]; 5 h) | pIC50 [1]
7.37 |  | Cc1nsc(NC(=O)N2CCC/C(=C/c3ccc(Cl)cc3F)CC2)n1 [Example 118, (4Z)-4-[(4-chloro-2-fluoro-phenyl)methylene]-N-(3-methyl-1,2,4-thiadiazol-5-yl)azepane-1-carboxamide] | 7.15 | 
7.01 |  | O=C(Nc1ccncc1)N1CCC(=Cc2ccc(Cl)cc2F)CC1 [Example 94] | 6.80 | 
7.41 |  | COc1cc(F)c(CC2CCN(C(=O)Nc3nc(C)ns3)CC2)c(F)c1 [Example 98, 4-[(2,6-difluoro-4-methoxy-phenyl)methyl]-N-(3-methyl-1,2,4-thiadiazol-5-yl)piperidine-1-carboxamide] | 7.12 | 
7.30 |  | Cc1nsc(NC(=O)N2CCC(=Cc3c(F)cc(N(C)CC4CN(C)C4)cc3F)CC2)n1 [Example 161] | 6.80 | 
7.29 |  | Cc1nsc(NC(=O)N2CCC(=Cc3c(F)cc(N(C)C4CCOC4)cc3F)CC2)n1 (stereo not shown) [Example 157] | 6.96 | 
7.15 |  | COc1ccc(C=C2CCCN(C(=O)Nc3nc(C)ns3)CC2)c(F)c1 [Example 103] | 6.81 | 
8.10 |  | CCc1cc(NC(=O)N2CCC(=Cc3ccc(Cl)cc3F)CC2)ccn1 [Example 144, 4-[(4-chloro-2-fluoro-phenyl)methylene]-N-(2-ethyl-4-pyridyl)piperidine-1-carboxamide] | 7.28 | 
7.89 |  | COCCN(C)c1cc(F)c(C=C2CCN(C(=O)Nc3nc(C)ns3)CC2)c(F)c1 [Example 146, 4-[[2,6-difluoro-4-[2-methoxyethyl(methyl)amino]phenyl]methylene]-N-(3-methyl-1,2,4-thiadiazol-5-yl)piperidine-1-carboxamide] | 7.70 | 
7.92 |  | Cc1nsc(NC(=O)N2CCC(=Cc3c(F)cc(N(C)C)cc3F)CC2)n1 [Example 112, 4-[[4-(dimethylamino)-2,6-difluoro-phenyl]methylene]-N-(3-methyl-1,2,4-thiadiazol-5-yl)piperidine-1-carboxamide] | 7.64 | 
7.82 |  | Cc1cc(NC(=O)N2CCC(Cc3c(F)cc(Cl)cc3F)CC2)ccn1 [Example 145] | 6.97 | 
6.70 |  | Cc1nsc(NC(=O)N2CCC(Cc3c(F)cc(O)cc3F)CC2)n1 [Example 100] | 6.40 | 
7.72 |  | CCc1nsc(NC(=O)N2CCC(Cc3c(F)cc(N(C)C)cc3F)CC2)n1 [Example 152, 4-[[4-(dimethylamino)-2,6-difluoro-phenyl]methyl]-N-(3-ethyl-1,2,4-thiadiazol-5-yl)piperidine-1-carboxamide] | 7.41 | 
7.66 |  | Cc1cc(NC(=O)N2CCC(Cc3c(F)cc(C(F)(F)F)cc3F)CC2)ccn1 [Example 139] | 6.82 | 
